Drawing on US7973061B2, “Anaplastic lymphoma kinase modulators and methods of use” (Exelixis, Inc., priority 2004, dated 2011), this text covers IC50 for 31 compounds.

Bounds are passed on as bounds.

T1 sequence (Q9UM73 1098-1410): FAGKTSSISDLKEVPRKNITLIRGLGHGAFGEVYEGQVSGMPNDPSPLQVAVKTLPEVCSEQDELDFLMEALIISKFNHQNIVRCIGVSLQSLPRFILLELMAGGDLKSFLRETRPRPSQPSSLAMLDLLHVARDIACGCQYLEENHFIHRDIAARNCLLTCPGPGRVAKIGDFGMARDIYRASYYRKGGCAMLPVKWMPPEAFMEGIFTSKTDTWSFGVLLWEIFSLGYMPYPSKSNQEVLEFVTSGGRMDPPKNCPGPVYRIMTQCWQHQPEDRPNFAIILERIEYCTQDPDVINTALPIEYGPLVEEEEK

This assay has as its target T1, ALK (baculovirus expressed human ALK kinase domain F1098-K1410) (Homo sapiens, UniProt Q9UM73).
T1 construct: human ALK kinase domain F1098-K1410; made in house
As to the kind of experiment: biochemical. The conditions noted are these: 1 μM ATP, 4 μM poly-AEKY, 12 nM ALK, 2 hours at ambient temperature; read-out: ALK IC50. An outline of the steps: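 Inhibitors were tested at 10 concentrations, and IC50 was derived from a sigmoidal fit (Min, Max, Hill slope). Kinase activity was measured as percent ATP left after a 2 h reaction at room temperature, detected by luciferase-luciferin chemiluminescence. The ATP level was set close to KM for the ALK kinase domain F1098-K1410.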
The IC50 is the concentration at which inhibition is half-maximal. As to `CC(CNC(=O)c1coc(CNC(=O)COc2ccc(OC(F)(F)F)cc2)n1)c1ccccc1` (stereo not shown) [Entry 259, N-(2-phenylpropyl)-2-({[({4-[(trifluoromethyl)oxy]phenyl}oxy)acetyl]amino}methyl)-1,3-oxazole-4-carboxamide], the 50% inhibitory concentration (IC50) lay within 500 to 2000 nM.
Then `COc1ccccc1CNC(=O)c1csc(CN)n1` [Entry 304, 2-(aminomethyl)-N-{[2-(methyloxy)phenyl]methyl}-1,3-thiazole-4-carboxamide], with greater than 2000 nM; and `NC(=O)[C@@H](Cc1ccccc1)NC(=O)c1csc(CNC(=O)COc2ccc(OC(F)(F)F)cc2)n1` [Entry 70, Nalpha-{[2-({[({4-[(trifluoromethyl)oxy]phenyl}oxy)acetyl]amino}methyl)-1,3-thiazol-4-yl]carbonyl}-D-phenylalaninamide], with 50 to 500 nM; and `Cc1ccccc1CNC(=O)c1coc(CNC(=O)COc2ccc(OC(F)(F)F)cc2)n1` [Entry 288, N-[(2-methylphenyl)methyl]-2-({[({4-[(trifluoromethyl)oxy]phenyl}oxy)acetyl]amino}methyl)-1,3-oxazole-4-carboxamide], with 500 to 2000 nM.
Then `O=C(COc1ccc(OC(F)(F)F)cc1)NCc1nc(C(=O)NCc2cccc(F)c2F)cs1` [Entry 116, N-[(2,3-difluorophenyl)methyl]-2-({[({4-[(trifluoromethyl)oxy]phenyl}oxy)acetyl]amino}methyl)-1,3-thiazole-4-carboxamide], with 50 to 500 nM; and `Cc1cccc(CCNC(=O)c2coc(CNC(=O)COc3ccc(OC(F)(F)F)cc3)n2)c1` [Entry 151, N-[2-(3-methylphenyl)ethyl]-2-({[({4-[(trifluoromethyl)oxy]phenyl}oxy)acetyl]amino}methyl)-1,3-oxazole-4-carboxamide], with 50 to 500 nM; and `COc1cccc(CCNC(=O)c2csc(CNC(=O)COc3ccc(OC(F)(F)F)cc3)n2)c1OC` [Entry 53, N-{2-[2,3-bis(methyloxy)phenyl]ethyl}-2-({[({4-[(trifluoromethyl)oxy]phenyl}oxy)acetyl]amino}methyl)-1,3-thiazole-4-carboxamide], with 50 to 500 nM.
Consider `COc1ccc(CCNC(=O)c2csc(CNC(=O)COc3ccc(OC(F)(F)F)cc3)n2)cc1` [Entry 9, N-{2-[4-(methyloxy)phenyl]ethyl}-2-({[({4-[(trifluoromethyl)oxy]phenyl}oxy)acetyl]amino}methyl)-1,3-thiazole-4-carboxamide], for which the half-inhibitory concentration (IC50) was less than 50 nM.
The result for `O=C(COc1ccc(OC(F)(F)F)cc1)NCc1nc(C(=O)NCCc2cccc(C(F)(F)F)c2)co1` [Entry 181, 2-({[({4-[(trifluoromethyl)oxy]phenyl}oxy)acetyl]amino}methyl)-N-{2-[3-(trifluoromethyl)phenyl]ethyl}-1,3-oxazole-4-carboxamide] reads 50 to 500 nM; that for `CSCC[C@H](NC(=O)c1ccccc1)C(=O)NCc1nc(C(=O)NCCc2cccc(Cl)c2)cs1` [Entry 221, N-{[4-({[2-(3-chlorophenyl)ethyl]amino}carbonyl)-1,3-thiazol-2-yl]methyl}-N~2~-(phenylcarbonyl)methioninamide], 500 to 2000 nM.
The result for `C[C@@H](NC(=O)c1csc(CNC(=O)COc2ccc(OC(F)(F)F)cc2)n1)C(C)(C)C` [Entry 233, 2-({[({4-[(trifluoromethyl)oxy]phenyl}oxy)acetyl]amino}methyl)-N-[(1R)-1,2,2-trimethylpropyl]-1,3-thiazole-4-carboxamide] reads 500 to 2000 nM; that for `CC(C)C(C)NC(=O)c1csc(CNC(=O)COc2ccc(OC(F)(F)F)cc2)n1` (stereo not shown) [Entry 197, N-(1,2-dimethylpropyl)-2-({[({4-[(trifluoromethyl)oxy]phenyl}oxy)acetyl]amino}methyl)-1,3-thiazole-4-carboxamide], 50 to 500 nM; that for `O=C(COc1ccc(OC(F)(F)F)cc1)NCc1nc(C(=O)NCCc2ccccc2Oc2ccccc2)cs1` [Entry 213, N-{2-[2-(phenyloxy)phenyl]ethyl}-2-({[({4-[(trifluoromethyl)oxy]phenyl}oxy)acetyl]amino}methyl)-1,3-thiazole-4-carboxamide], 50 to 500 nM.
Then `CCN1CCCC1CNC(=O)c1csc(CNC(=O)COc2ccc(OC(F)(F)F)cc2)n1` (stereo not shown) [Entry 275, N-[(1-ethylpyrrolidin-2-yl)methyl]-2-({[({4-[(trifluoromethyl)oxy]phenyl}oxy)acetyl]amino}methyl)-1,3-thiazole-4-carboxamide], with 500 to 2000 nM; and `CC(C)(C)OC(=O)NC1CCN(C(=O)c2csc(CNC(=O)COc3ccc(OC(F)(F)F)cc3)n2)CC1` [Entry 254, 1,1-dimethylethyl(1-{[2-({[({4-[(trifluoromethyl)oxy]phenyl}oxy)acetyl]amino}methyl)-1,3-thiazol-4-yl]carbonyl}piperidin-4-yl)carbamate], with 500 to 2000 nM; and `CCCCOc1ccc(NC(=O)NCc2nc(C(=O)NCc3cccc(OC)c3OC)cs2)cc1` [Entry 248, N-{[2,3-bis(methyloxy)phenyl]methyl}-2-{[({[4-(butyloxy)phenyl]amino}carbonyl)amino]methyl}-1,3-thiazole-4-carboxamide], with 500 to 2000 nM.
Consider `O=C(COc1ccc(OC(F)(F)F)cc1)NCc1nc(C(=O)NCc2ccc(Cl)c(Cl)c2)co1` [Entry 291, N-[(3,4-dichlorophenyl)methyl]-2-({[({4-[(trifluoromethyl)oxy]phenyl}oxy)acetyl]amino}methyl)-1,3-oxazole-4-carboxamide], for which the IC50 lay within 500 to 2000 nM.
Then `CC(C)(C)c1ccc(OCC(=O)NCc2nc(C(=O)NCCc3cccc(Cl)c3)cs2)cc1` [Entry 67, N-[2-(3-chlorophenyl)ethyl]-2-{[({[4-(1,1-dimethylethyl)phenyl]oxy}acetyl)amino]methyl}-1,3-thiazole-4-carboxamide], with 50 to 500 nM.
Then `C[C@@H](CNC(=O)c1coc(CNC(=O)COc2ccc(OC(F)(F)F)cc2)n1)c1ccccc1` [Entry 128, N-[(2R)-2-phenylpropyl]-2-({[({4-[(trifluoromethyl)oxy]phenyl}oxy)acetyl]amino}methyl)-1,3-oxazole-4-carboxamide], with 50 to 500 nM; and `COc1ccccc1CNC(=O)c1coc(CNC(=O)COc2ccc(OC(F)(F)F)cc2)n1` [Entry 203, N-{[2-(methyloxy)phenyl]methyl}-2-({[({4-[(trifluoromethyl)oxy]phenyl}oxy)acetyl]amino}methyl)-1,3-oxazole-4-carboxamide], with 50 to 500 nM.
Then `O=C(COc1ccc(OC(F)(F)F)cc1)NCc1nc(C(=O)NCCc2cccc(F)c2)co1` [Entry 148, N-[2-(3-fluorophenyl)ethyl]-2-({[({4-[(trifluoromethyl)oxy]phenyl}oxy)acetyl]amino}methyl)-1,3-oxazole-4-carboxamide], with 50 to 500 nM; and `COc1cccc(CNC(=O)c2csc(CNC(=O)Cc3ccc4ccccc4c3)n2)c1OC` [Entry 256, N-{[2,3-bis(methyloxy)phenyl]methyl}-2-{[(naphthalen-2-ylacetyl)amino]methyl}-1,3-thiazole-4-carboxamide], with 500 to 2000 nM.
Take `CC(C)(C)CC(C)(C)NC(=O)c1csc(CNC(=O)COc2ccc(OC(F)(F)F)cc2)n1` [Entry 196, N-(1,1,3,3-tetramethylbutyl)-2-({[({4-[(trifluoromethyl)oxy]phenyl}oxy)acetyl]amino}methyl)-1,3-thiazole-4-carboxamide]: the IC50 fell in the range of 50 to 500 nM.
Then `COc1ccc(CNC(=O)c2csc(CNC(=O)COc3ccc(OC(F)(F)F)cc3)n2)c(OC)c1` [Entry 120, N-{[2,4-bis(methyloxy)phenyl]methyl}-2-({[({4-[(trifluoromethyl)oxy]phenyl}oxy)acetyl]amino}methyl)-1,3-thiazole-4-carboxamide], with 50 to 500 nM; and `COc1ccccc1CNC(=O)c1csc(CNC(=O)Nc2ccc(C(C)C)cc2)n1` [Entry 29, 2-{[({[4-(1-methylethyl)phenyl]amino}carbonyl)amino]methyl}-N-{[2-(methyloxy)phenyl]methyl}-1,3-thiazole-4-carboxamide], with 50 to 500 nM.
Then `Cc1ccccc1CNC(=O)c1csc(CNC(=O)COc2ccc(OC(F)(F)F)cc2)n1` [Entry 98, N-[(2-methylphenyl)methyl]-2-({[({4-[(trifluoromethyl)oxy]phenyl}oxy)acetyl]amino}methyl)-1,3-thiazole-4-carboxamide], with 50 to 500 nM; and `O=C(COc1ccc(OC(F)(F)F)cc1)NCc1nc(C(=O)NCCc2cccc(F)c2)cs1` [Entry 14, N-[2-(3-fluorophenyl)ethyl]-2-({[({4-[(trifluoromethyl)oxy]phenyl}oxy)acetyl]amino}methyl)-1,3-thiazole-4-carboxamide], with less than 50 nM.
The result for `CC(C)c1ccc(NC(=O)NCc2nc(C(=O)NCCc3ccccc3F)cs2)cc1` [Entry 27, N-[2-(2-fluorophenyl)ethyl]-2-{[({[4-(1-methylethyl)phenyl]amino}carbonyl)amino]methyl}-1,3-thiazole-4-carboxamide] reads less than 50 nM; that for `O=C(COc1ccc(OC(F)(F)F)cc1)NCc1nc(C(=O)NCCc2ccccc2)co1` [Entry 242, N-(2-phenylethyl)-2-({[({4-[(trifluoromethyl)oxy]phenyl}oxy)acetyl]amino}methyl)-1,3-oxazole-4-carboxamide], 500 to 2000 nM.
With `O=C(COc1ccc(OC(F)(F)F)cc1)NCc1nc(C(=O)NCc2ccco2)cs1` [Entry 249, N-(furan-2-ylmethyl)-2-({[({4-[(trifluoromethyl)oxy]phenyl}oxy)acetyl]amino}methyl)-1,3-thiazole-4-carboxamide], the IC50 was in the range of 500 to 2000 nM.
The result for `C[C@@H]1[C@@H](NC(=O)c2coc(CNC(=O)COc3ccc(OC(F)(F)F)cc3)n2)C[C@H]2C[C@@H]1C2(C)C` [Entry 89, 2-({[({4-[(trifluoromethyl)oxy]phenyl}oxy)acetyl]amino}methyl)-N-[(1S,2S,3S,5R)-2,6,6-trimethylbicyclo[3.1.1]hept-3-yl]-1,3-oxazole-4-carboxamide] reads 50 to 500 nM.
